Assay results taken from patent US7354922B2, “Bridged ring NK1 antagonists” (Schering Corporation, priority 2004, dated 2008).
pKi: −log10 of the molar value.

target: NK1 receptor (Homo sapiens, UniProt P25103); experiment: NK1 receptor binding (inhibition of Substance P binding, Ki by Chang-Prusoff equation)
Description: The in vitro and in vivo NK1, NK2 and NK3 activities of the compounds of Formula (I) can be determined by various procedures known in the art, such as a test for their ability to inhibit the activity of the NK1 agonist Substance P. The percent inhibition of neurokinin agonist activity is the difference between the percent of maximum specific binding (“MSB”) and 100%. The percent of MSB is defined by the following equation, wherein “dpm” represents “disintegrations per minute”:
[formula] The concentration at which the compound produces 50% inhibition of binding is then used to determine an inhibition constant (“Ki”) using the Chang-Prusoff equation.
The activities (potencies) for the compounds of the invention are determined by measuring their Ki values. […] Even more preferred are compounds having average Ki values of from 0.05 nM to about 5 nM for the NK1 receptor. Especially preferred compounds have NK1 average Ki values of from 0.05 nM to about 1 nM. Even more especially preferred compounds have NK1 average Ki values of from 0.05 nM to about 0.2 nM.

Sequence of NK1 receptor (P25103 whole entry, species assumed): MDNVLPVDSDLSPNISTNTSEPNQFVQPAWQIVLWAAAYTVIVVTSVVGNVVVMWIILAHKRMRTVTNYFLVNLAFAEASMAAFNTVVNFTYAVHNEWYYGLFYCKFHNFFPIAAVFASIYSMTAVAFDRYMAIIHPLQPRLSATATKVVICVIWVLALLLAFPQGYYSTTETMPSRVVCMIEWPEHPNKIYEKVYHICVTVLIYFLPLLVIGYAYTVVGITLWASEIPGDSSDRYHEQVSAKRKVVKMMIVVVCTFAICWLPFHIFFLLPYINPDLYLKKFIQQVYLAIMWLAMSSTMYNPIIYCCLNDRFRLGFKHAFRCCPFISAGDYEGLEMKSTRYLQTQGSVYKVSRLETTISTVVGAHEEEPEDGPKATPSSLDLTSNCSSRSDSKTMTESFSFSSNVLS

| Structure (SMILES) | pKi |
| --- | --- |
| C[C@@H](OC[C@@]1(c2ccccc2)CC[C@]2(CO)CN1CC(=O)N2)c1cc(C(F)(F)F)cc(C(F)(F)F)c1 [Example 3a] | 9.82 |
| C[C@@H](OC[C@@]1(c2ccccc2)CC[C@@H]2CN1CCN2C(N)=O)c1cc(C(F)(F)F)cc(C(F)(F)F)c1 [Example 5] | 10.00 |
| C[C@@H](OC[C@@]1(c2ccccc2)CC[C@]2(CC#N)CN1CC(=O)N2)c1cc(C(F)(F)F)cc(C(F)(F)F)c1 [Example 8] | 9.92 |
| COC[C@]12CC[C@@](CO[C@H](C)c3cc(C(F)(F)F)cc(C(F)(F)F)c3)(c3ccccc3)N(CC(=O)N1)C2 [Example 12] | 9.89 |
| C[C@@H](OC[C@@]1(c2ccccc2)CC[C@]2(COC(N)=O)CN1CC(=O)N2)c1cc(C(F)(F)F)cc(C(F)(F)F)c1 [Example 15] | 10.05 |
| C[C@@H](OC[C@@]1(c2ccccc2)CC[C@]2(CC(N)=O)CN1CC(=O)N2)c1cc(C(F)(F)F)cc(C(F)(F)F)c1 [Example 16] | 9.80 |
| C[C@@H](OC[C@@]1(c2ccccc2)CC[C@]2(Cn3cnnn3)CN1CC(=O)N2)c1cc(C(F)(F)F)cc(C(F)(F)F)c1 [Example 20] | 9.82 |
| C[C@@H](OC[C@@]1(c2ccccc2)CC[C@]2(CNC3CC3)CN1CC(=O)N2)c1cc(C(F)(F)F)cc(C(F)(F)F)c1 [Example 32] | 9.96 |
| C[C@@H](OC[C@@]1(c2ccccc2)CC[C@@]23COCCN2C(=O)CN1C3)c1cc(C(F)(F)F)cc(C(F)(F)F)c1 [Example 51] | 9.92 |
| C[C@@H](OC[C@@]1(c2ccccc2)CC[C@]2(CO)CN1CCN2)c1cc(C(F)(F)F)cc(C(F)(F)F)c1 [Example 57] | 9.92 |

Further lines, results first:

| pKi | Structure (SMILES) |
| --- | --- |
| 9.96 | C[C@@H](OC[C@@]1(c2ccccc2)CC[C@@H]2CN1CCN2)c1cc(C(F)(F)F)cc(C(F)(F)F)c1 [Example 4] |
| 9.96 | C[C@@H](OC[C@@]1(c2ccccc2)CC[C@]2(CN3CCCCC3=O)CN1CC(=O)N2)c1cc(C(F)(F)F)cc(C(F)(F)F)c1 [Example 30] |
| 9.89 | CC(C)=NOC[C@]12CC[C@@](CO[C@H](C)c3cc(C(F)(F)F)cc(C(F)(F)F)c3)(c3ccccc3)N(CC(=O)N1)C2 [Example 33] |
| 10.15 | CSC[C@]12CC[C@@](CO[C@H](C)c3cc(C(F)(F)F)cc(C(F)(F)F)c3)(c3ccccc3)N(CC(=O)N1)C2 [Example 34] |
| 9.92 | C[C@@H](OC[C@@]1(c2ccccc2)CC[C@]2(CNS(C)(=O)=O)CN1CC(=O)N2)c1cc(C(F)(F)F)cc(C(F)(F)F)c1 [Example 38] |
| 9.92 | C[C@@H](OC[C@@]1(c2ccccc2)CC[C@@]2(NC(N)=O)CCCN1C2)c1cc(C(F)(F)F)cc(C(F)(F)F)c1 [Example 47] |
| 9.80 | C[C@@H](OC[C@@]1(c2ccccc2)CC[C@]2(CO)CN1CC(=O)O2)c1cc(C(F)(F)F)cc(C(F)(F)F)c1 [Example 49] |
